Test results published in patent US6605469B1, “Nucleic acid molecule encoding a cytochrome P-450 hydroxylase in brassinosteroid biosynthesis in plants” (Korea Kumho Petrochemical Co., Ltd., priority 2000, dated 2003).

How the values were obtained:
DDWF1 [1] = assay: DDWF1 activity assay with [4-14C]testosterone, TLC analysis; assay type: biochemical, pea; settings: N-terminal truncated recombinant DDWF1
Description: Forty μl of the [4-^14C]testosterone (Amersham-Pharmacia, Cat. No. CFA129, 193 μCi/mg) was aliquoted, and the solvent was evaporated under gentle stream of N2 gas. Yeast microsomal fractions were prepared as described (Pompon et al., 1996). Thirty μg of microsomal fraction, 5 μg of Pra2 protein, and various amounts of the recombinant DDWF1 were used for each reaction, each with 175 μl of the reaction buffer (1M HEPES, pH 7.4, 0.1 mM EDTA, 0.5 mM GTP, 10 mM MgCl2). The mixture was transferred to the tube containing the lyophilized testosterone and incubated for 10 min at 37° C. Twenty-five μl of NADPH solution, prepared in the same reaction buffer, was then added to the mixture to a final concentration of 1 mM. The total mixture was further incubated for 30 min at 37° C. and terminated by adding 1 ml of ethyl acetate and vortexing for 30 sec. After centrifugation for 4 min at 15000×g, the upper layer was recovered and evaporated in chemical hood overnight. The dry pellet was dissolved in 20 μl of ethyl acetate, spotted on TLC on Silicagel 60 F254 (20×20 cm, Merck, Darmstadt, Germany), and developed in dichloromethane/acetone (4:1 by volume) and then in chloroform/ethyl acetate/ethanol (4:1:0.7 by volume) as described (Waxman, 1991).

[2] = tested on: anti-sense pra2 transgenic plants; assay: Complementation of dark-grown anti-sense pra2 transgenic plants with phytohormones and BR intermediates (hypocotyl length); assay type: in vivo, Nicotiana tabacum; settings: for rescue of the dwarfish hypocotyls in BR feeding experiment / stimulatory effect on hypocotyls as % of the BL effect: anti-sense pra2 transgenic plants grown 5 days in complete darkness; for rescue of the dwarfish hypocotyls in BR feeding experiment: CS 10^-8 M; for stimulatory effect on hypocotyls as % of the BL effect: 6-OHCS 10^-8 M, 6-deoxoCS 10^-8 M
Description: Seeds of Nicotiana tabacum (Petit Havana SR1) were germinated and grown in sterile condition at 25° C. with a 16-hour photoperiod. The Arabidopsis thaliana ecotype Columbia (Col-0) was germinated and grown on 0.5×Murashige and Skoog medium containing 1% agar and Suc. All Arabidopsis cultures were maintained in a controlled environment culture room at 22° C. with the humidity of 70% and the photoperiod of 12 hours. Feeding experiments were also performed in the same culture conditions.
Plant growth regulators tested were BR, GA, auxin, cytokinine, abscisic acid, and salicylic acid. The BR hormones included the most oxidized brassinolide (BL, 10^−8 M) and various intermediates, such as campestanol (CN, 10^−6 M), 6-oxocampestanol (6-oxoCN, 10^−6 M), 6-deoxocathasterone (6-deoxoCT, 10^−6 M), cathasterone (CT, 10^−6 M), 6-deoxoteasterone (6-deoxoTE, 10^−6 M), teasterone (TE, 10^−6 M), 6-deoxotyphasterol (6-deoxoTY, 10^−7 M), typhasterol (TY, 10^−7 M), 6-deoxocastasterone (6-deoxoCS, 10^−8 M), 6α-hydroxycastasterone (6-OHCS, 10^−8 M), and castasterone (CS, 10^−8 M). Each BR intermediates were used at the concentrations as indicated in parentheses. […] Plants were germinated and grown in the presence of each BR intermediate for 4-7 days either in the light or in complete darkness. Hypocotyl lengths of 30-50 plants in each treatment were measured and averaged.

DDWF1 [3] = assay: Substrate specificity of recombinant DDWF1 with BR intermediates, HPLC analysis; assay type: biochemical, pea; settings: reaction mixtures analyzed on HPLC
Description: For HPLC analysis, BR intermediates were incubated with the DDWF1 as with testosterone, and the mixture was analyzed on the Waters 626 LC System and Photodiode Array Detector (Waters, Milford, Mass.). The reverse-phase Supelcosil LC-18 (250×4.6 mm, Supelco, Pa., USA) was used at a flow rate of 2 ml/min. The solvents used were 45% acetonitrile for the first 20 min, a gradient of 45% to 100% for the next 20 min, and pure acetonitrile for the last 10 min.

[4] = target: wild type Pra2-GST fusion protein [GST: P08515]
[5] = target: Q79L Pra2-GST fusion protein (constitutively active form) [GST: P08515]
[6] = target: T34N Pra2-GST fusion protein (dominant negative form) [GST: P08515]

C[C@]12CC[C@H]3[C@@H](CCC4=CC(=O)CC[C@@]43C)[C@@H]1CC[C@@H]2O [Testosterone]
substrate for DDWF1 (DDWF1 [1]): not the substrate

CC(C)[C@H](C)[C@@H](O)[C@H](O)[C@@H](C)[C@H]1CC[C@H]2[C@@H]3COC(=O)[C@H]4C[C@H](O)[C@H](O)C[C@]4(C)[C@H]3CC[C@]12C [BL, brassinolide]
rescue of the dwarfish hypocotyls in BR feeding experiment ([2]; BL 10^-8 M): completely rescued | rescue of the dark-specific dwarfish hypocotyls ([2]; anti-sense pra2 transgenic tobacco grown in the dark, phytohormones at physiological concentrations, BL 10^-8 M): completely rescued | growth kinetics of transgenic versus control seedlings in the presence of BL ([2]; dark-grown seedlings, hypocotyl length over time, FIG. 4C): became similar | BL effect on transgenic plants grown in the light ([2]; transgenic plants grown in the light): No BL effects

gibberellins [GA]
stimulatory effect on hypocotyls relative to that by BL ([2]; anti-sense pra2 transgenic tobacco grown in the dark, phytohormones at physiological concentrations): 20-30%

CC(C)[C@H](C)[C@@H](O)[C@H](O)[C@@H](C)[C@H]1CC[C@H]2[C@@H]3CC[C@H]4C[C@H](O)[C@H](O)C[C@]4(C)[C@H]3CC[C@]12C [6-deoxoCS, 6-deoxocastasterone]
stimulatory effect on hypocotyls as % of the BL effect [2]: ~60%

CC(C)[C@H](C)[C@@H](O)[C@H](O)[C@@H](C)[C@H]1CC[C@H]2[C@@H]3CC(=O)[C@H]4C[C@H](O)[C@H](O)C[C@]4(C)[C@H]3CC[C@]12C [CS, castasterone]
rescue of the dwarfish hypocotyls in BR feeding experiment ([2]; BL 10^-8 M): completely rescued | conversion by recombinant DDWF1 (substrate specificity) (DDWF1 [3]): not the substrate

CC(C)[C@H](C)[C@@H](O)[C@H](O)[C@@H](C)[C@H]1CC[C@H]2[C@@H]3CC(=O)[C@H]4C[C@H](O)CC[C@]4(C)[C@H]3CC[C@]12C [TY, typhasterol]
conversion by recombinant DDWF1 (substrate specificity) (DDWF1 [3]): converted to CS

CC(C)[C@H](C)[C@@H](O)[C@H](O)[C@@H](C)[C@H]1CC[C@H]2[C@@H]3C[C@H](O)[C@H]4C[C@H](O)[C@H](O)C[C@]4(C)[C@H]3CC[C@]12C [6-OHCS, 6α-hydroxycastasterone]
stimulatory effect on hypocotyls as % of the BL effect [2]: about 50%

B1: recombinant N-terminal truncated DDWF1, soluble form expressed in E. coli (protein)
chain: MALQVLTLPSWVTLFTTFAILLLFSRRLRRRQYNLPPGPKPWPIIGNFNLIGTLPHQSLHGLTQKYGPIMHLWFGSKRVVVGSTVEMAKAFLKTHDATLAGRPKFSAGKYTTYNYSDITWSQYGPYWRQARRMCLLELFSAKRLESYEYIRKQELHVFLHELFDSRNKTILLKDHLSSLSLNVISRMVLGRKYLEKVENSIISPDEFKNMLDELFLLNGILNIGDFIPWIHFLDFQGYVKRMKVLSKKFDGFMEHVLEEHIERRKGVKDYVAKDMVDVLLQLAEDPDLEVKLERHGVKAFTQDLIAGGTESSAVTVEWAISELIRKPEIFKKATEELDRVIGRERWVEEKDIANLPYVYAIAKETMRLHPVAPMLVPREAREDCNINGYDIPKGSLILVNTWTIARDSNVWDNPNEFMPERFLGKDIDVKGHDYELLPFGAGRRMCPGYPLGIKVIQSSLANLLHGFNWRLSDDVKKEDLNMEEIFGLSTPKKIHPG
conversion efficiency (DDWF1 hydroxylase activity on a testosterone intermediate, TLC) [4]: the conversion efficiency was slightly higher with the wild type and Q79L than with the T34N | conversion efficiency (DDWF1 hydroxylase activity on a testosterone intermediate, TLC) [5]: the conversion efficiency was slightly higher with the wild type and Q79L than with the T34N | conversion efficiency (DDWF1 hydroxylase activity on a testosterone intermediate, TLC) [6]: the conversion efficiency was slightly higher with the wild type and Q79L than with the T34N
